Assay results reported in US20250151724A1, “Liquid Soil Treatments Containing Choline” (Harrell's, LLC, priority 2023, published 2025).
Where two headings read alike, the source gives them in different places.

Tests used:
[1] = Procedure: Soil cores (1 inch diameter and 6 inches deep) were taken from a creeping bentgrass putting green and dried at 65° C. for 48 hours then allowed to air dry for 2 days. […] The soil cores were allowed to air dry for additional 4 days and the water drop penetration test was repeated using the same method. The four treatments were 1) control (distilled water), 2) distilled water plus choline at 0.125 oz./1,000 ft^2, 3) distilled water plus choline at 0.25 oz./1,000 ft^2, and 4) distilled water plus choline at 0.5 oz./1,000 ft^2. There were 3 replications for each treatment. The water drops from distilled water or choline solution were placed on soil cores 0.75 inch from the soil surface. As soon as the water drops reached the soil, a timer was started. When each water drop had disappeared and the water had penetrated into the soil, the time elapsed was recorded.
[2] = test system: creeping bentgrass putting greens; test: Experiment No. 5: putting green field trial of Fleet100 and choline alone or in combination; format: in vivo; details: Fleet100 5 fl oz, choline 0.25 oz/1000 ft^2 monthly
Procedure: There were 4 treatments with 4 replications. Plot size was 5×6 ft. Regular mowing and irrigation were performed. A randomized block design was used. Fleet® 100 was supplied by […]) and choline from Sigma-Aldrich, Inc. (St. Louis, MO) were used in this study. The treatments were as follows: • 1. […] N/1,000 ft^2 biweekly • 3. […] N/1,000 ft^2 biweekly • 4. […] The trial lasted for 12 weeks and a total of 3 treatment applications. […] Leaf chlorophyll content. Leaf samples were collected biweekly and chlorophyll content was determined using the spectrophotometer method described by Zhang et al. (2005). • e. Volumetric water content. […] At day 9 of the dry down cycles, leaf samples were collected and leaf proline content was analyzed. Irrigation was resumed after day 9 of each dry down cycle. […] Leaf proline content. Leaf samples were collected at the end of each dry down cycle and proline content was measured by using the method described by Wu et al. (2017). • g. Root characteristics, biomass, and viability. […] The root length, root diameter, root surface area, and root volume were analyzed using WinRHIZO technology. Briefly, after fine cleaning of each root sample, the sample from each plot was divided into multiple subsamples. Each subsample was scanned using WinRHIZO and all root morphological parameters were generated and analyzed. In addition, root viability was analyzed using TTC method (Zhang et al., 2017). Root viability is a good indicator of root function.

[3] = choline 0.125 oz/1000 ft2 in distilled water
[4] = choline 0.25 oz/1000 ft2 in distilled water
[5] = choline 0.5 oz/1000 ft2 in distilled water

For `C[N+](C)(C)CCO.[Cl-]` [Choline, choline chloride], which “time of water drop penetration, first test” value ([1]; 2 days after oven drying of soil cores, not quantified) is on record?
Its value is “reduced the time of water drop penetration”.

What about the “Time of water drop penetration, Average” value [1, 3] of the same compound?
Its value is 250.3ab seconds.

What about the “Time of water drop penetration, Rep I” value [1, 3] of the same compound?
Its value is 454 s.

And the “Time of water drop penetration, Rep II” value [1, 3]?
Its value is 106 s.

And the “Time of water drop penetration, Rep III” value [1, 3]?
The value was 191 s.

And the “Time of water drop penetration, Average” value ([1]; choline 0.125 oz/1000 ft2 in distilled water, listed as choline)?
Its value is 250.3 s.

And the “Time of water drop penetration, Average” value [1, 4]?
The value was 129.7ab seconds.

What about the “Time of water drop penetration, Rep I” value [1, 4] of the same compound?
The value was 110 s.

And the “Time of water drop penetration, Rep II” value [1, 4]?
Its value is 72 s.

And the “Time of water drop penetration, Rep III” value [1, 4]?
Its value is 207 s.

What about the “Time of water drop penetration, Average” value ([1]; choline 0.25 oz/1000 ft2 in distilled water, listed as choline) of the same compound?
The value was 129.7 s.

And the “Time of water drop penetration, Average” value [1, 5]?
Its value is 97.7b seconds.

And the “Time of water drop penetration, Rep I” value [1, 5]?
The value was 97 s.

What about the “Time of water drop penetration, Rep II” value [1, 5] of the same compound?
The value was 26 s.

And the “Time of water drop penetration, Rep III” value [1, 5]?
Its value is 170 s.

And the “Time of water drop penetration, Average” value ([1]; choline 0.5 oz/1000 ft2 in distilled water, listed as choline)?
Its value is 97.7 s.

And the “Water drop penetration time shorter relative to the control (distilled water)” value ([1]; choline solution 0.5 oz./1,000 ft^2)?
The value was 2.5 fold.

What about the “Chlorophyll Content” value ([2]; day 0) of the same compound?
Its value is 2.45a mg/g fresh weight.

And the “Leaf color (1-9, 9 = dark green)” value ([2]; day 0)?
The value was 7.5a.

What about the “Photochemical Efficiency (Fv/Fm)” value ([2]; day 0) of the same compound?
The value was 0.720a.

What about the “Turf quality (1-9, 9 = best)” value ([2]; day 0) of the same compound?
Its value is 7.5a.

What about the “Chlorophyll Content” value ([2]; day 14) of the same compound?
The value was 2.90a mg/g fresh weight.

And the “Leaf color (1-9, 9 = dark green)” value ([2]; day 14)?
The value was 7.6ab.

What about the “Photochemical Efficiency (Fv/Fm)” value ([2]; day 14) of the same compound?
Its value is 0.696a.

And the “Turf quality (1-9, 9 = best)” value ([2]; day 14)?
Its value is 7.4a.

And the “Leaf color (1-9, 9 = dark green)” value ([2]; day 22)?
Its value is 7.4a.

What about the “Photochemical Efficiency (Fv/Fm)” value ([2]; day 22) of the same compound?
The value was 0.664a.

What about the “Turf quality (1-9, 9 = best)” value ([2]; day 22) of the same compound?
The value was 6.8ab.

And the Proline ([2]; day 22 (end of 1st dry-down cycle))?
Its Proline is 467.0a ug/g FW.

What about the “Chlorophyll Content” value ([2]; day 28) of the same compound?
Its value is 3.85a mg/g fresh weight.

And the “Leaf color (1-9, 9 = dark green)” value ([2]; day 28)?
Its value is 7.8a.

And the “Photochemical Efficiency (Fv/Fm)” value ([2]; day 28)?
Its value is 0.761a.

And the “Turf quality (1-9, 9 = best)” value ([2]; day 28)?
Its value is 7.6b.

What about the “Photochemical Efficiency (Fv/Fm)” value ([2]; day 40) of the same compound?
Its value is 0.714a.

What about the “Chlorophyll Content” value ([2]; day 42) of the same compound?
The value was 3.03a mg/g fresh weight.

What about the “Leaf color (1-9, 9 = dark green)” value ([2]; day 42) of the same compound?
The value was 6.9ab.

What about the “Photochemical Efficiency (Fv/Fm)” value ([2]; day 42) of the same compound?
The value was 0.634a.

What about the “Turf quality (1-9, 9 = best)” value ([2]; day 42) of the same compound?
The value was 6.5b.

And the Proline ([2]; day 42 (end of 2nd dry-down cycle))?
The Proline was 538.0a ug/g FW.

And the “Chlorophyll Content” value ([2]; day 56)?
The value was 3.46a mg/g fresh weight.

What about the “Leaf color (1-9, 9 = dark green)” value ([2]; day 56) of the same compound?
The value was 7.7ab.

And the “Photochemical Efficiency (Fv/Fm)” value ([2]; day 56)?
Its value is 0.729a.

What about the “Turf quality (1-9, 9 = best)” value ([2]; day 56) of the same compound?
Its value is 7.4b.

And the “Chlorophyll Content” value ([2]; day 70)?
Its value is 2.79b mg/g fresh weight.

And the “Leaf color (1-9, 9 = dark green)” value ([2]; day 70)?
Its value is 7.4ab.

What about the “Photochemical Efficiency (Fv/Fm)” value ([2]; day 70) of the same compound?
Its value is 0.733ab.

And the “Turf quality (1-9, 9 = best)” value ([2]; day 70)?
Its value is 7.2ab.

What about the “Chlorophyll Content” value ([2]; day 84) of the same compound?
The value was 2.57a mg/g fresh weight.

What about the “Leaf color (1-9, 9 = dark green)” value ([2]; day 84) of the same compound?
Its value is 7.4b.

And the “Photochemical Efficiency (Fv/Fm)” value ([2]; day 84)?
Its value is 0.733ab.

And the “Turf quality (1-9, 9 = best)” value ([2]; day 84)?
The value was 7.3b.

And the “Root Biomass” value ([2]; end of trial)?
The value was 2.14ab mg/cm^3.

And the “Root Diameter” value ([2]; end of trial)?
Its value is 0.187b mm.

What about the “Root Length” value ([2]; end of trial) of the same compound?
The value was 118.2a cm/cm^3.

What about the “Root SA” value ([2]; end of trial) of the same compound?
Its value is 7.02ab cm^2/cm^3.

What about the “Root Volume” value ([2]; end of trial) of the same compound?
The value was 33.4ab cm^3/dm^3.

What about the “Root Viability” value ([2]; end of trial, TTC method) of the same compound?
Its value is 0.49a A490/g FW.
